Reference: US7531573B2 (priority 1994, dated 2009)
Like-named read-outs stand apart in the source and are kept apart here.

How the values were obtained:
[1] = target: Gardos channel of erythrocytes (Homo sapiens, UniProt O15554); assay: cell-based; conditions: for inhibition at 10 µM: read-out: Gardos Channel % Inhibition
[2] = tested on: NIH 3T3 mouse fibroblast cells; assay: Mitogen-induced cell proliferation; assay type: cell-based; conditions: for inhibition at 10 µM: NIH3T3, read-out: Mitogen-induced cell proliferation % Inhibition; for IC50: NIH3T3, read-out: Mitogen-induced cell proliferation IC50
Excerpt: Other cell lines, e.g., cancer cells, endothelial cells and fibroblasts, as well as many others, may be used in the cell proliferation assay. Selection of a particular cell line will depend in part on the desired application, and is well within the capabilities of an ordinarily skilled artisan.

[3] = erythrocytes, read-out: Gardos Channel IC50

Chain of Gardos channel of erythrocytes (O15554 whole entry): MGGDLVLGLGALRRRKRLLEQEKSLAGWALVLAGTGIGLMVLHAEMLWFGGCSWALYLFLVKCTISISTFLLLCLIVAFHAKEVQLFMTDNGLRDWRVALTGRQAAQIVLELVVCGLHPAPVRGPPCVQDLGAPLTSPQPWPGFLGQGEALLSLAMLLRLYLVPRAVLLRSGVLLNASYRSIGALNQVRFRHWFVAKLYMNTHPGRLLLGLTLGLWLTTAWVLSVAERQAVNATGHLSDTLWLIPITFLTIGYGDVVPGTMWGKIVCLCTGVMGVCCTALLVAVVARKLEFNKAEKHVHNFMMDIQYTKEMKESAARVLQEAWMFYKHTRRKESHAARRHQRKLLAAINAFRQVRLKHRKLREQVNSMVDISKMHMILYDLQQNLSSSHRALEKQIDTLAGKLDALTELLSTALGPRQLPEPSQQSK

| IC50 [1] | SMILES | inhibition at 10 µM [1] | inhibition at 10 µM [2] | IC50 [2] | IC50 [1, 3] |
| --- | --- | --- | --- | --- | --- |
| 755 nM | OC(c1ccccc1)(c1ccccc1)c1ccccc1 [Compound 1] | 97% |  |  |  |
| 459 nM | ClC(c1ccccc1)(c1ccccc1)c1ccccc1 [Compound 2] | 99.4% | 64.8% |  |  |
|  | c1ccc(C(c2ccccc2)(c2ccccc2)[n+]2ccccc2)cc1 [Compound 7] | 98.2% | 6.6% |  | 410 nM |
|  | c1ccc(N(c2ccccc2)c2ccccc2)cc1 [Compound 8] | 95.6% | 28.3% |  | 2850 nM |
|  | C1=CC(=P(c2ccccc2)(c2ccccc2)c2ccccc2)C=C1 [Compound 10] | 89.7% | 25.5% | 4800 nM | 957 nM |
|  | SC(c1ccccc1)(c1ccccc1)c1ccccc1 [Compound 11] | 99.2% | 52% | 2310 nM | 2160 nM |
| 252 nM | BrC(c1ccccc1)(c1ccccc1)c1ccccc1 [Compound 12] | 99% | 72.8% | 1700 nM |  |
|  | N#CC(c1ccccc1)(c1ccccc1)c1ccccc1 [Compound 13] | 72.4% | 87% | 920 nM | 133 nM |
| 48 nM | N#CC(c1ccccc1)(c1ccccc1)c1ccccc1Cl [Compound 14, (2-chlorophenyl)-diphenylacetonitrile] | 98.8% | 95.8% | 2200 nM |  |
|  | NC(=O)CC(c1ccccc1)(c1ccccc1)c1ccccc1 [Compound 18] | 98% | 76.1% | 10000 nM | 431 nM |
|  | N#CCC(c1ccccc1)(c1ccccc1)c1ccccc1 [Compound 19] | 97% | 80% | 5800 nM | 1130 nM |
| 795 nM | OC(c1ccccc1)(c1ccccc1)c1ccccc1F [Compound 20] | 98.1% | 39% |  |  |
| 725 nM | OC(c1ccccc1)(c1ccccc1)c1ccc(-c2ccccc2)cc1 [Compound 21] | 97.3% | 99% | 2800 nM |  |
| 302 nM | OCCC(c1ccccc1)(c1ccccc1)c1ccccc1 [Compound 22] | 82% | 85% | 6800 nM |  |
|  | O=C1CC[C@@H](COC(c2ccccc2)(c2ccccc2)c2ccccc2)N1 [Compound 23] | 97.9% | 77% | 3800 nM | 216 nM |
|  | O=C1CC[C@@H](COC(c2ccccc2)(c2ccccc2)c2ccccc2)O1 [Compound 24] | 97.9% | 29% |  | 135 nM |
|  | O=C(O)CNC(c1ccccc1)(c1ccccc1)c1ccccc1 [Compound 25] | 34.4% | 70% |  |  |
|  | CON(C)C(=O)CC(c1ccc(Cl)cc1)(c1ccc(Cl)cc1)c1ccc(Cl)cc1 [Compound 40] |  | 99% | 1000 to 1200 nM |  |
| 1080 nM | OCCC[CH2][Ge]([c]1ccccc1)([c]1ccccc1)[c]1ccccc1 [Compound 72] |  |  |  |  |
|  | c1ccc([Si](c2ccccc2)(c2ccccc2)c2cccs2)cc1 [Compound 76] |  | 84% |  |  |

| SMILES | IC50 [1] | inhibition at 10 µM [1] | inhibition at 10 µM [2] | IC50 [2] | IC50 [1, 3] |
| --- | --- | --- | --- | --- | --- |
| c1ccc(C(c2ccccc2)c2ccccc2)cc1 [Compound 3] | 1200 nM | 86.6% | 53% |  |  |
| c1ccc(C(c2ccccc2)c2ccncc2)cc1 [Compound 4] | 2860 nM | 91% | 37.7% |  |  |
| NC(c1ccccc1)(c1ccccc1)c1ccccc1 [Compound 5] | 1650 nM | 86% | 66% | 1280 nM |  |
| O=C(O)CC(c1ccccc1)(c1ccccc1)c1ccccc1 [Compound 9] | 21800 nM | 77.2% | 32.7% |  |  |
